In the supplement of paper PMC11061612:

Legend:
Assay in all cases: Bliss excess, mean over the matrix (fraction); higher = more synergy
[1] = test system: HCC1806 (Breast Carcinoma)
Outline: (§1)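 After 24 hours at 37°C and 5% CO2 in 1536-well plates, cells in DMEM/F12 or RPMI plus 10% FBS received two-drug dose matrices for 72 hours. Viability came from CellTiter-Glo 2.0 luminescence and was scaled as inhibition, anchored at 0 by vehicle wells and at 1 by blank wells. Combination Emax is taken as the second-highest inhibition in the matrix, and Bliss excess as the observed combination effect less EA + EB − EA·EB, with EA and EB the single-agent effects.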

[2] = test system: TCCSUP (Bladder Carcinoma)
Outline: as §1

[3] = test system: Calu-3 (Lung Adenocarcinoma)
Outline: as §1

[4] = test system: NCI-H82 (Small Cell Lung Carcinoma)
Outline: as §1

[5] = test system: RO82-W-1 (Thyroid Gland Carcinoma)
Outline: as §1

[6] = test system: HO-1-N-1 (Oral Cavity Carcinoma)
Outline: as §1

[7] = test system: ES4 (Ewing's Sarcoma)
Outline: as §1

[8] = test system: 42-MG-BA (Glioblastoma)
Outline: as §1

[9] = test system: LNCaP-Clone-FGC (Prostate Carcinoma)
Outline: as §1

[10] = test system: KYSE-520 (Esophageal Squamous Cell Carcinoma)
Outline: as §1

[11] = test system: DoTc2-4510 (Cervical Carcinoma)
Outline: as §1

[12] = test system: LS-180 (Colorectal Carcinoma)
Outline: as §1

[13] = test system: Hs-578-T (Breast Carcinoma)
Outline: as §1

[14] = test system: Ramos-2G6-4C10 (Burkitt's Lymphoma)
Outline: as §1

[15] = test system: DEL (T-Cell Non-Hodgkin's Lymphoma)
Outline: as §1

[16] = test system: UM-UC-3 (Bladder Carcinoma)
Outline: as §1

[17] = test system: CAL-148 (Breast Carcinoma)
Outline: as §1

[18] = test system: KURAMOCHI (Ovarian Carcinoma)
Outline: as §1

[19] = test system: ME-1 (Acute Myeloid Leukemia)
Outline: as §1

[20] = test system: B-CPAP (Thyroid Gland Carcinoma)
Outline: as §1

| SMILES | Bliss excess [1] | Bliss excess [2] | Bliss excess [3] | Bliss excess [4] | Bliss excess [5] | Bliss excess [6] | Bliss excess [7] | Bliss excess [8] | Bliss excess [9] | Bliss excess [10] | Bliss excess [11] | Bliss excess [12] | Bliss excess [13] | Bliss excess [14] | Bliss excess [15] | Bliss excess [16] | Bliss excess [17] | Bliss excess [18] | Bliss excess [19] | Bliss excess [20] |
| --- | --- | --- | --- | --- | --- | --- | --- | --- | --- | --- | --- | --- | --- | --- | --- | --- | --- | --- | --- | --- |
| CC(=O)c1c(C)c2cnc(Nc3ccc(N4CCNCC4)cn3)nc2n(C2CCCC2)c1=O [Palbociclib] + Cn1cnc2c(F)c(Nc3ccc(Br)cc3Cl)c(C(=O)NOCCO)cc21 [Selumetinib] (first compound max 10 µM, 7x7, partner max 10 µM) | 0.0382 | -0.0438 | -0.0095 | -0.0216 | -0.0414 | 0.0927 | -0.0359 | -0.0776 | 0.0237 | 0.0617 | -0.0384 | 0.0098 | 0.0135 | -0.023 | 0.0224 | -0.0001 | -0.0462 | 0.0078 | -0.0321 | 0.0321 |
| COc1cccc(OCCCN)c1-c1cc(Nc2cnc(C#N)cn2)n[nH]1 [Prexasertib] + C=CCn1c(=O)c2cnc(Nc3ccc(N4CCN(C)CC4)cc3)nc2n1-c1cccc(C(C)(C)O)n1 [AZD1775] (first compound max 1 µM, partner max 1 µM) | 0.0552 | 0.0389 | 0.0255 | 0.0778 | -0.126 | 0.104 | 0.0978 | 0.0835 | -0.0172 | 0.0142 | 0.048 | 0.184 | -0.0242 | 0.112 | 0.0279 | 0.14 | 0.136 | 0.0282 | 0.0408 | 0.154 |
| COc1cccc(OCCCN)c1-c1cc(Nc2cnc(C#N)cn2)n[nH]1 [Prexasertib] + CCc1c2c(nc3ccc(O)cc13)-c1cc3c(c(=O)n1C2)COC(=O)[C@]3(O)CC [SN-38] (first compound max 1 µM, 7x7, partner max 0.3 µM) | -0.001 | 0.0743 | -0.0003 | 0.0347 | 0.0431 | -0.0054 | -0.0923 | 0.0122 | -0.0782 | 0.048 | 0.0167 | -0.0629 | 0.0856 | 0.0754 | -0.0068 | 0.0017 | -0.0388 | 0.0311 | 0.0086 | 0.0695 |
| COc1cccc(OCCCN)c1-c1cc(Nc2cnc(C#N)cn2)n[nH]1 [Prexasertib] + CN(C)CCCOc1ccc(-c2ccc3ncc4c(c3c2)n(C2CCOCC2)c(=O)n4C)cn1 [AZD0156] (first compound max 1 µM, 7x7, partner max 1 µM) | -0.0262 | -0.0021 | -0.0668 | 0.0117 | -0.0684 | -0.0077 | 0.0147 | 0.023 | -0.0374 | -0.0211 | -0.0208 | -0.0605 | 0.0101 | 0.0693 | -0.0201 | -0.0174 | -0.0115 | -0.0425 | -0.0167 | -0.0156 |
| COc1cccc(OCCCN)c1-c1cc(Nc2cnc(C#N)cn2)n[nH]1 [Prexasertib] + C[C@@H]1COCCN1C2=NC(=NC(=C2)C3(CC3)[S@](=N)(=O)C)C4=C5C=CNC5=NC=C4 [AZD6738] (first compound max 1 µM, 7x7, partner max 10 µM) | -0.0472 | -0.0245 | -0.0108 | -0.0186 | 0.005 | 0.0115 | -0.0489 | -0.0994 | -0.0427 | -0.0696 | -0.0218 | 0.0194 | -0.0779 | -0.0191 | 0.001 | 0.0563 | 0.0988 | -0.0707 | 0.0637 | -0.0345 |
| COc1cccc(OCCCN)c1-c1cc(Nc2cnc(C#N)cn2)n[nH]1 [Prexasertib] + Cc1cc2ncnn2cc1Nc1ncc2c(n1)n(C1CCOCC1)c(=O)n2C [AZD7648] (first compound max 1 µM, 7x7, partner max 10 µM) | -0.0193 | -0.0182 | 0.0049 | -0.0355 | -0.058 | 0.0096 | -0.0121 | -0.0574 | -0.0617 | -0.0177 | 0.0159 | -0.0329 | -0.0453 | 0.0025 | -0.0097 | -0.0198 | 0.0235 | -0.0628 | -0.0048 | 0.0049 |
